# Entries after “also recorded” stand apart in the source; their conditions may differ.
# Experiments:
# Balb/c3T3 fibroblasts = test: Inhibition of fibroblast growth (Coulter cell counting); type: cell-based
# Experimental: Cells were then transferred to above medium containing indicated concentrations of dipyridamole. After three days cell growth was determined by counting using a ZM Coulter counter (Coulter Diagnostic, Inc.).
# [1] = test system: Smooth muscle cells from rabbit aorta; test: Inhibition of DNA synthesis (3H thymidine incorporation) induced by PDGF, FGF or EGF; type: cell-based; settings: for inhibition at 0.08 µg/mL / inhibition at 0.15 µg/mL / inhibition at 0.32 µg/mL / inhibition at 0.64 µg/mL / inhibition at 1.2 µg/mL / inhibition at 2.5 µg/mL: Oryctolagus cuniculus, Platelet, 24 h, 1% platelet poor plasma; for inhibition at 0.08 µg/mL: dipyridamole 0.08 μg/ml; for inhibition at 0.15 µg/mL: dipyridamole 0.15 μg/ml; for inhibition at 0.32 µg/mL: dipyridamole 0.32 μg/ml; for inhibition at 0.64 µg/mL: dipyridamole 0.64 μg/ml; for inhibition at 1.2 µg/mL: dipyridamole 1.2 μg/ml; for inhibition at 2.5 µg/mL: dipyridamole 2.5 μg/ml
# Experimental: Dipyridamole inhibits smooth muscle cell proliferation induced by multiple growth factors. Smooth muscle cells from rabbit aorta (derived by explant method) were seeded in 96 well tissue culture plates in DMEM containing 10% fetal bovine serum, 2 mM L-glutamine, 100 U/ml penicillin and 100 μg/ml streptomycin. Growth arrested, confluent cultures in 96 well microtiter plates were incubated in medium containing 1% platelet poor plasma, 2 mM L-glutanime, 100 U/ml penicillin, 100 μg/ml streptomycin, 20 ng/ml PDGF, 3 ng/ml EGF (Genzyme), 3 ng/ml FGF (Genzyme), 1 μci/ml ^3 H thymidine and indicated concentrations of dipyridamole. Cells were incubated at 37° C. for 24 hours under 5% CO2 /95% air. At the end of 24 hours, cells were fixed in methanol. DNA synthesis was determined by ^3 H thymidine incorporation as previously described.
# [2] = test system: balloon-injured rat carotid arteries; test: Effect of systemic (dietary) dipyridamole upon intimal thickening after balloon injury of the left common carotid artery; type: in vivo, male Sprague-Dawley rats; settings: two weeks; for Area of Intimal Thickening: control 0.120 ± 0.014
# Experimental: Balloon injury to the left common carotid arteries of male Sprague-Dawley rats (350-400 g) was accomplished by three passes of an inflated 2F Fogarty balloon catheter (Baxter Healthcare, McGaw Park, Ill.) as described by Clowes et al., Lab Invest. 49:208-215 (1983). Animals were anesthetized with Ketamine (80 mg/kg, intramuscular, Aveco, Ft. Dodge, Iowa) and Rompun (16 mg/kg, intramuscular, Mobay Corp., Shawnee, Kans.). Entry of the balloon catheter to the left common carotid artery was made via a nick in the external carotid artery, which was tied off at the end of the surgical procedure. Dipyridamole was systemically administered for two weeks (0.03 and 0.10% wt/wt, as an admixture in the diet, equivalent to approximately 30 and 100 mg/kg/day, respectively).
# [3] = test system: Smooth muscle cells from rabbit aorta; test: Effect of serum concentration on inhibition of PDGF-induced DNA synthesis (3H thymidine incorporation) by dipyridamole; type: cell-based; settings: for inhibition at 0.04 µg/mL / inhibition at 0.08 µg/mL / inhibition at 0.15 µg/mL / inhibition at 0.3 µg/mL / inhibition at 0.6 µg/mL / inhibition at 1.2 µg/mL / inhibition at 2.5 µg/mL: Oryctolagus cuniculus, 24 h, 40 ng/ml PDGF; for inhibition at 0.04 µg/mL: dipyridamole 0.04 μg/ml; for inhibition at 0.08 µg/mL: dipyridamole 0.08 μg/ml; for inhibition at 0.15 µg/mL: dipyridamole 0.15 μg/ml; for inhibition at 0.3 µg/mL: dipyridamole 0.3 μg/ml; for inhibition at 0.6 µg/mL: dipyridamole 0.6 μg/ml; for inhibition at 1.2 µg/mL: dipyridamole 1.2 μg/ml; for inhibition at 2.5 µg/mL: dipyridamole 2.5 μg/ml
# Experimental: Serum reduces the effectiveness of systemically administered dipyridamole as an inhibitor of cell proliferation. […] Growth arrested, confluent cultures in 96 well microtiter plates were incubated in medium containing 1%, 5% or 20% serum (Hyclone Laboratories, Logan, Utah), 2 mM L-glutamine, 100 U/ml penicillin, 100 μg/ml streptomycin, 40 ng/ml PDGF (Genzyme, Cambridge, Mass.), 1 μci/ml ^3 H thymidine (DuPont, Boston, Mass.) and indicated concentrations of dipyridamole (Sigma Chemical, St. Louis, Mo.). Cells were incubated at 37° C. for 24 hours under 5% CO2 /95% air. At the end of 24 hours, cells were fixed in methanol and DNA synthesis was determined by ^3 H thymidine incorporation as described in Bonin et al., Exp. Cell Res. 181, 475-482 (1989).
# vascular restenosis = settings: systemic administration; patients; cited from earlier work
# [4] = 0.03% in diet wt/wt (approximately 30 mg/kg/day)
# [5] = 0.10% in diet wt/wt (approximately 100 mg/kg/day)
smiles,measurement,setting,value
"OCCN(CCO)c1nc(N2CCCCC2)c2nc(N(CCO)CCO)nc(N3CCCCC3)c2n1 [Dipyridamole, 2,6-bis(diethanolamino)-4,8-dipiperidinopyrimido[5,4-d]pyrimidine]",inhibition at 1 µg/mL,"Balb/c3T3 fibroblasts; Mus musculus, BALB/c3T3, 72 h, dipyridamole 1.0 μg/ml, three days, 5% fetal bovine serum",0%
same,inhibition at 5 µg/mL,"Balb/c3T3 fibroblasts; Mus musculus, BALB/c3T3, 72 h, dipyridamole 5.0 μg/ml, three days, 5% fetal bovine serum",55%
same,inhibition at 10 µg/mL,"Balb/c3T3 fibroblasts; Mus musculus, BALB/c3T3, 72 h, dipyridamole 10 μg/ml, three days, 5% fetal bovine serum",72%
same,inhibition at 20 µg/mL,"Balb/c3T3 fibroblasts; Mus musculus, BALB/c3T3, 72 h, dipyridamole 20 μg/ml, three days, 5% fetal bovine serum",86%
same,inhibition at 40 µg/mL,"Balb/c3T3 fibroblasts; Mus musculus, BALB/c3T3, 72 h, dipyridamole 40 μg/ml, three days, 5% fetal bovine serum",95%
same,inhibition of proliferation of cells of mesenchyme origin,Balb/c3T3 fibroblasts; fibroblasts,inhibits proliferation of cells of mesenchyme origin
same,inhibition at 0.08 µg/mL,[1]; EGF (3 ng/ml),68%
same,inhibition at 0.15 µg/mL,[1]; EGF (3 ng/ml),76%
same,inhibition at 0.32 µg/mL,[1]; EGF (3 ng/ml),85%
same,inhibition at 0.64 µg/mL,[1]; EGF (3 ng/ml),90%
same,inhibition at 1.2 µg/mL,[1]; EGF (3 ng/ml),94%
same,inhibition at 2.5 µg/mL,[1]; EGF (3 ng/ml),96%
same,inhibition at 0.08 µg/mL,[1]; FGF (3 ng/ml),67%
same,inhibition at 0.15 µg/mL,[1]; FGF (3 ng/ml),74%
same,inhibition at 0.32 µg/mL,[1]; FGF (3 ng/ml),80%
same,inhibition at 0.64 µg/mL,[1]; FGF (3 ng/ml),87%
same,inhibition at 1.2 µg/mL,[1]; FGF (3 ng/ml),92%
same,inhibition at 2.5 µg/mL,[1]; FGF (3 ng/ml),93%
same,inhibition at 0.08 µg/mL,[1]; PDGF (20 ng/ml),64%
same,inhibition at 0.15 µg/mL,[1]; PDGF (20 ng/ml),71%
same,inhibition at 0.32 µg/mL,[1]; PDGF (20 ng/ml),82%
same,inhibition at 0.64 µg/mL,[1]; PDGF (20 ng/ml),89%
same,inhibition at 1.2 µg/mL,[1]; PDGF (20 ng/ml),93%
same,inhibition at 2.5 µg/mL,[1]; PDGF (20 ng/ml),96%
same,inhibition of smooth muscle cell proliferation induced by growth factors,"[1]; PDGF, FGF, and EGF","inhibits cell proliferation induced by PDGF, FGF, and EGF"
same,Area of Intimal Thickening (% of control),[2]; [4],97.6 % of control
same,Area of Intimal Thickening,[2]; [4],0.116 ± 0.017 mm^2
same,effect upon intimal thickening in the balloon-injured rat carotid arteries,[2]; 0.03 and 0.10% wt/wt in the diet,No significant effect upon intimal thickening
same,Area of Intimal Thickening (% of control),[2]; [5],90.8 % of control
same,Area of Intimal Thickening,[2]; [5],0.109 ± 0.014 mm^2
same,effect of serum on antiproliferative activity,"[3]; 1%, 5% or 20% serum",increasing concentrations of serum attenuate the growth inhibitory effects of dipyridamole
same,inhibition at 0.04 µg/mL,[3]; 1% serum,59%
same,inhibition at 0.08 µg/mL,[3]; 1% serum,70%
same,inhibition at 0.15 µg/mL,[3]; 1% serum,79%
same,inhibition at 0.3 µg/mL,[3]; 1% serum,80%
same,inhibition at 0.6 µg/mL,[3]; 1% serum,86%
same,inhibition at 1.2 µg/mL,[3]; 1% serum,90%
same,inhibition at 2.5 µg/mL,[3]; 1% serum,93%
same,inhibition at 0.04 µg/mL,[3]; 5% serum,52%
same,inhibition at 0.08 µg/mL,[3]; 5% serum,53%
same,inhibition at 0.15 µg/mL,[3]; 5% serum,60%
same,inhibition at 0.3 µg/mL,[3]; 5% serum,71%
same,inhibition at 0.6 µg/mL,[3]; 5% serum,80%
same,inhibition at 1.2 µg/mL,[3]; 5% serum,87%
same,inhibition at 2.5 µg/mL,[3]; 5% serum,92%
same,inhibition at 0.04 µg/mL,[3]; 20% serum,6%
same,inhibition at 0.08 µg/mL,[3]; 20% serum,0%
same,inhibition at 0.15 µg/mL,[3]; 20% serum,33%
same,inhibition at 0.3 µg/mL,[3]; 20% serum,38%
same,inhibition at 0.6 µg/mL,[3]; 20% serum,60%
same,inhibition at 1.2 µg/mL,[3]; 20% serum,74%
same,inhibition at 2.5 µg/mL,[3]; 20% serum,77%
same,effect in treating or preventing vascular restenosis,vascular restenosis,ineffective; also recorded: ineffective in treating or preventing vascular restenosis in patients
